# According to patent US6610763B1, “Polymer composition, the production and further processing thereof into receptacles” (priority 1998, dated 2003):
# Experiments:
# [1] = system: Klebsiella pneumoni (ATCC 4352) and Staphylococcus aureus (ATCC 6538); test: inhibiting zone test on agar plates; type: cell-based; conditions: various concentrations on 6-mm filter disks, approximately 16 hours of incubation on agar plates, FIG. 1
# Description: For purposes of determining the concentration by means of the inhibiting zone tests, Klebsiella pneumoni (ATCC 4352) and Staphylococcus aureus (ATCC 6538) were bred on casein soy-meal broth (CM, oxoid), then plated out onto casein-peptone soy-meal agar (CM 131, oxoid) and incubated at 37° C. [98.6° F.]. Up to 50 μl of Irgasan DP 300 were applied onto 6-mm filter disks.
# For this purpose, first of all, a test was drawn up that makes it possible to quantitatively detect the anti-microbial effect of test specimens containing 0.2% Irgasan DP 300 and Irgasan DP 300 as a pure substance. In order to examine the migration of the additive and the sensitivity of various test germs, an inhibiting zone test was conducted: test specimens were incubated on agar plates that had been inoculated with these germs. As indicators, two microorganisms were employed whose minimum inhibiting concentration (MIC) with respect to Irgasan DP 300 was between 0.01 ppm and 0.3 ppm, according to information provided by the manufacturer. The kinetics of the release of active ingredient into an aqueous solution were examined by incubating test specimens in a defined volume and by subsequently evaluating them with a spectroscope as well as in the inhibiting zone test. Both methods were calibrated by means of parallel batches with the pure substance. […]
# [2] = in vivo; cited from earlier work
# [3] = saturation concentration in water; type: physicochemical; conditions: room temperature
smiles,measurement,setting,value
"Oc1cc(Cl)ccc1Oc1ccc(Cl)cc1Cl [Irgasan DP 300, 2,4,4′-trichloro-2′-hydroxydiphenyl ether]",microbial growth in inhibiting zones,[1],do not exhibit any microbial growth
same,accumulation in the body,[2],does not accumulate in the body
same,toxicity in view of LD50 value,[2],practically non-toxic
same,saturation concentration in water,[3],about 10 ppm
